From US9029078B2, “Perfusion and/or preservation solution for organs” (Philadelphia College of Osteopathic Medicine, priority 2005, dated 2015)
Where no end group is shown, it is not given here.

Experiments:
rat aortic endothelium = assay: Measurement of NO release from rat aortic segments
Source text: FIG. 5. Measurement of NO release from rat aortic segments. […] All values are expressed as means± SEM. Numbers at bottom of bars are numbers of separate experiments per group. *p<0.05, **p<0.01, from basal values. FIG. 10. Measurement of NO release from rat aortic segments. […] All values are expressed as means± SEM. Numbers at bottom of bars are numbers of separate experiments per group. *p<0.05, **p<0.01, from basal values. FIG. 17. Measurement of NO release from rat aortic segments. […] All values are expressed as means± SEM. Numbers at bottom of bars are numbers of separate experiments per group. **p<0.01, from basal values. PMN adherence to coronary vascular endothelium was also evaluated within the assessment of total intravascular and infiltrated PMNs. […] NO release from rat aortic endothelium was measured to determine if PKC ζ peptide inhibitor provides cardioprotection by a mechanism involving increased endothelial NO release. […] The eNOS inhibitor, L-NAME, was used as another control in order to decrease basal release of NO to zero.

PMA-stimulated rat PMNs = assay: Superoxide release from PMA-stimulated rat PMNs; type: cell-based
Procedure: FIG. 6. Superoxide release from rat PMNs. Superoxide release was measured from 5×10^6 PMNs after phorbol-12-myristate-13-acetate (PMA) (15 nM) stimulation. Superoxide dismutase (SOD) (10 μg/ml) was employed as a positive control. The change in absorbance (Δ) was measured 360 sec after PMA addition (peak response). […] All values are means± SEM. Numbers at bottom of bars show the numbers of separate experiments per group.
FIG. 18. Superoxide release from rat PMNs. Superoxide release was measured from 5×10^6 PMNs after PMA (15 nM) stimulation. SOD (10 μg/ml) was employed as a positive control. The change in absorbance (Δ) was measured 360 sec after PMA addition (peak response). […] All values are means± SEM. Numbers at bottom of bars show the numbers of separate experiments per group.
FIG. 22. Superoxide release from rat PMNs. Superoxide release was measured from 5×10^6 PMNs after PMA (15 nM) stimulation. The change in absorbance (Δ) was measured 360 sec after PMA addition (peak response). […] All values are means± SEM. Numbers at bottom of bars show the numbers of separate experiments per group.

[1] = test system: PMN infiltration into the myocardium of isolated perfused rat hearts; assay: Histological assessment of total intravascular and infiltrated PMNs in post-reperfusion cardiac tissue
Procedure: FIG. 4a. Histological assessment of total intravascular and infiltrated PMNs in isolated perfused rat heart samples taken from 3 rats per group and 10 areas per heart. […] Hatched boxes represent non-PMN perfused hearts and black boxes represent PMN-perfused hearts. **P<0.01, from I/R+PMNs.
(§1) Data were recorded every 5 min for 45 min post-reperfusion. After each experiment, the left ventricle was isolated, fixed in 4% paraformaldehyde and stored at 4° C. for later histological analysis.
The cardiac injury associated with I/R in this model was closely correlated with the substantial number of PMNs infiltrating the myocardium within the 45 min reperfusion period. During reperfusion, a significant number of PMNs transmigrated into the myocardium, increasing from less than 25 PMN/mm^2 in Sham I/R hearts to more than 180 PMN/mm^2 in I/R+PMN hearts at the end of the reperfusion period (FIG. 4a).

[2] = test system: isolated perfused rat hearts (I/R+PMNs); assay: Isolated perfused rat heart, 20 min ischemia / 45 min reperfusion with PMNs: cardiac contractile function (LVDP, +dP/dtmax, LVEDP); conditions: for +dP/dtmax recovered to, of initial baseline / LVDP recovered to, of initial baseline: 45 min post-reperfusion
Procedure: as §1

[3] = test system: PMN adherence to coronary vascular endothelium; assay: Histological assessment of intravascular PMNs adhering to the coronary vasculature; set-up: species or system rat; conditions: I/R+PMN hearts, 5 μM
Procedure: FIG. 4b. Histological assessment of intravascular PMNs that adhered to the coronary vasculature in isolated perfused rat heart samples taken from 3 rats per group
and 10 areas per heart. […] Hatched boxes represent non-PMN perfused hearts and black boxes represent PMN-perfused hearts. All values are mean numbers of PMNs/mm^2 of heart area± SEM.
PMN adherence to coronary vascular endothelium was also evaluated within the assessment of total intravascular and infiltrated PMNs. […] NO release from rat aortic endothelium was measured to determine if PKC ζ peptide inhibitor provides cardioprotection by a mechanism involving increased endothelial NO release. […] The eNOS inhibitor, L-NAME, was used as another control in order to decrease basal release of NO to zero.

[4] = I/R+PMN hearts, 5 μM + L-NAME 50 μM

With “PKC ζ peptide inhibitor: peptide inhibitor of protein kinase C zeta; preferred sequence SEQ ID NO: 2, preferably myristoylated; from Genemed Synthesis (SIYRRGARRWRKL; not fully specified; listed as Homo sapiens)” the “Endothelial NO release vs basal NO release (in words)” value (rat aortic endothelium) was “significantly increased”, the “NO release compared to basal NO release” value (rat aortic endothelium; 1 μM) was “not significantly different” and the “Increase in NO release compared to basal NO release” value (“Increase in NO release” below) (rat aortic endothelium; 2.5 μM) was 47±2%. The “Increase in NO release” value (rat aortic endothelium; 5 μM) was 54±5%, the “NO release from endothelium removed (denuded) rat aortic segments” value (rat aortic endothelium; 5 μM, denuded segments) was “not different from L-NAME-treated segments” and the “Increase in NO release” value (rat aortic endothelium; 15 μM) was 91±15%. For the same substance, the “Induced production of NO after treating the endothelium with L-NAME” value (rat aortic endothelium; L-NAME 400 μM) was “completely inhibited”, the “Superoxide release vs PMA-stimulated rat PMNs (in words)” value (PMA-stimulated rat PMNs; 1 μM) was “no difference” and the “Inhibition of PMN superoxide release” value (PMA-stimulated rat PMNs; 15 μM) was 82%. The “Inhibition of superoxide release” value (PMA-stimulated rat PMNs; 2.5-15 μM, PMA 15 nM) was 33-82%, the “Superoxide release after PMA (15 nM) stimulation (in words)” value (PMA-stimulated rat PMNs; 360 sec after PMA) was “significantly inhibited” and the “Infiltrated PMNs compared to 1 μM treated hearts” value ([1]; 2.5 and 5 μM treated hearts) was “significantly fewer infiltrated PMNs”. For the same substance, the “Total intravascular and infiltrated PMNs vs I/R+PMNs (in words)” value ([1]; I/R+PMN hearts) was “significantly attenuated”, the “Reduction in PMN infiltration into post-reperfused cardiac tissue” value ([1]; I/R+PMN hearts, 1 μM) was 20±6% and the “Reduction in PMN infiltration into post-reperfused cardiac tissue” value ([1]; I/R+PMN hearts, 2.5 μM) was 46±4%. The “Reduction in PMN infiltration into post-reperfused cardiac tissue” value ([1]; I/R+PMN hearts, 5 μM) was 48±3%, the “Effect on PMN infiltration in the presence of L-NAME (in words)” value ([1]; I/R+PMN hearts, with L-NAME) was “blocked” and the “LVDP of I/R+PMN group compared to treated I/R+PMN group (time course)” value ([2]; 5 μM, reperfusion 0 to 45 min) was “significant and sustained reduction”. The “+dP/dtmax recovered to, of initial baseline” value ([2]; I/R+PMN hearts, 1 μM) was 46±6%, the “LVDP recovered to, of initial baseline” value ([2]; I/R+PMN hearts, 1 μM) was 57±10% and the “+dP/dtmax recovered to, of initial baseline” value ([2]; I/R+PMN hearts, 2.5 μM) was 75±5%. The “LVDP recovered to, of initial baseline” value ([2]; I/R+PMN hearts, 2.5 μM) was 83±4%, the “+dP/dtmax recovered to, of initial baseline” value [2, 4] was 54±9% and the “LVDP recovered to, of initial baseline” value [2, 4] was 58±7%. The “+dP/dtmax recovered to, of initial baseline” value ([2]; I/R+PMN hearts, 5 μM) was 76±5%, the “LVDP recovered to, of initial baseline” value ([2]; I/R+PMN hearts, 5 μM) was 84±4% and the Lowest effective dose ([2]; I/R+PMN hearts, LVDP and +dP/dtmax) was 2.5 µM. For the same substance, the “Protective effect on +dP/dt max in the presence of L-NAME (in words)” value ([2]; I/R+PMN hearts, with L-NAME) was “blocked”, the “Protective effect on LVDP in the presence of L-NAME (in words)” value ([2]; I/R+PMN hearts, with L-NAME) was “significantly blocked” and the “PMN-induced contractile dysfunction / decrease in +dP/dt max (in words)” value ([2]; final +dP/dt max after reperfusion, vs I/R+PMNs) was “attenuated”. For the same substance, the “PMN-induced contractile dysfunction / decrease in LVDP (in words)” value ([2]; final LVDP, 45 min post reperfusion, vs I/R+PMNs) was “attenuated” and the “Reduction in adherent PMNs to the coronary endothelium (not significant, p<0.06)” value [3] was 43±10%.
